According to patent publication US8158621B2, “Methods of treating or preventing autoimmune diseases with 2,4-pyrimidinediamine compounds” (Rigel Pharmaceuticals, Inc., priority 2002, dated 2012):

System: Human Jurkat T-cells (clone N)
Experiment: Jurkat T-cell activation (anti-TCR, CD69 upregulation)
Type: cell-based
Conditions: not given
Description: The screening process took place over three days.
On the first day of the screen, cultured cells were spun down on a centrifuge (1000 rpm, 5 minutes) and resuspended at 3.0×10^5 cells/ml in RPMI+5% FBS. On the second day of the screen, cells were spun down at 1000 rpm for 5 minutes and resuspended in RPMI+5% FBS at 1.3×10^5 cells/ml. 85 μl of this cell suspension were added to the wells of U-bottom 96 well plates (Corning) 85 μl of compound or diluted RPMI+5% FBS (as a control) only was added to each well and incubated at 37° C. for 1 hour. The cells were then stimulated with anti-TCR (C305) at: 500 ng/ml by adding a 8× solution in 25 μl to the plated cells. The cells were then incubated at 37° C. for 20 hrs.
On the third day of the screen, the plates were spun at 2500 RPM for 1 minute on a Beckman GS-6R centrifuge, and the medium was then removed. 50 μl staining solution (1:100 dilution of anti-CD69-APC antibody (Becton Dickenson) in PBS+2% FBS) was then added to each well, followed by incubation of the plates 4 degrees for 20 minutes in the dark. 150 μl of wash buffer (PBS+2% FBS) was then added to each well, and the plates were spun at 3000 RPM for 1 minute. The supernatant was again removed, and the pellet was resuspended by vortexing gently. 75 μl of PBS+2% FBS +Cytofix (1:4 dilution) was then added, the plates gently vortexed and wrap in aluminum foil. Cells from the plates were read using a flow cytometer coupled to an automated liquid handling system.
Varied concentrations of compound were compared to solvent only to determine the inhibition of T-cell activation IC50 of each compound.

SMILES	IC50 [µM]
CCOC(=O)COc1ccc(Nc2ncc(-c3nn[nH]n3)c(Nc3ccc(OCC(=O)OCC)cc3)n2)cc1 [Compound R925810]	21.3
CCOC(=O)c1cnc(Nc2ccc(OCC(=O)NCC3CC3)cc2)nc1Nc1cccc(O)c1 [Compound R925838]	> 10
O=C(COc1ccc(Nc2nc(Nc3cccc(O)c3)ncc2Br)cc1)NCC1CC1 [Compound R925842]	> 10
N#Cc1cnc(Nc2cccc(O)c2)nc1Nc1ccc(OCC(=O)NCC2CC2)cc1 [Compound R925845]	6.97
N#Cc1cnc(Nc2ccc(OCC(=O)NCC(O)CO)cc2)nc1Nc1cccc(O)c1 (stereo not shown) [Compound R925846]	> 10
CCCNC(=O)COc1ccc(Nc2ncc(C#N)c(Nc3ccc(OCC(=O)NCCC)cc3)n2)cc1 [Compound R925853]	> 10

Same assay, conditions: Homo sapiens, Jurkat

SMILES	IC50 [µM]
Oc1cccc(Nc2ncc(-c3ccc4c(c3)OCO4)c(Nc3cccc(O)c3)n2)c1 [Compound R925788]	16.9
Oc1ccc(CCNc2ccnc(NCCc3ccc(O)cc3)n2)cc1 [Compound R925790]	17
Oc1ccc(CCNc2ncc(F)c(NCCc3ccc(O)cc3)n2)cc1 [Compound R925791]	> 10
Oc1ccc(CCNc2ncc(Br)c(NCCc3ccc(O)cc3)n2)cc1 [Compound R925792]	8.65
Fc1cnc(Nc2ccc3c(c2)OCCO3)nc1NC1CCCCC1 [Compound R925794]	> 10
O=C(O)C1CCC(Nc2nc(Nc3ccc4c(c3)OCCO4)ncc2F)CC1 (stereo not shown) [Compound R925795]	> 10
Brc1cnc(Nc2ccccc2-c2ccccc2)nc1Nc1ccccc1-c1ccccc1 [Compound R925798]	> 10
COc1ccc(-c2ccccc2)cc1Nc1ncc(Br)c(Nc2cc(-c3ccccc3)ccc2OC)n1 [Compound R925799]	> 10
COc1cc(-c2ccccc2)c(C)cc1Nc1ncc(Br)c(Nc2cc(C)c(-c3ccccc3)cc2OC)n1 [Compound R925801]	> 10
COc1ccc(Nc2ncc(Br)c(Nc3ccc(OC)c(-c4ccccc4)c3)n2)cc1-c1ccccc1 [Compound R925802]	> 10
Brc1cnc(Nc2cccc(-c3ccccc3)c2)nc1Nc1cccc(-c2ccccc2)c1 [Compound R925803]	> 10
c1ccc(-c2ccccc2Nc2ccnc(Nc3ccccc3-c3ccccc3)n2)cc1 [Compound R925804]	> 10
COc1ccc(-c2ccccc2)cc1Nc1ccnc(Nc2cc(-c3ccccc3)ccc2OC)n1 [Compound R925805]	> 10
COc1ccc(Nc2ccnc(Nc3ccc(OC)c(-c4ccccc4)c3)n2)cc1-c1ccccc1 [Compound R925806]	> 10
Cc1ccc(-c2ccccc2)cc1Nc1ccnc(Nc2cc(-c3ccccc3)ccc2C)n1 [Compound R925807]	> 10
COc1cc(-c2ccccc2)c(C)cc1Nc1ccnc(Nc2cc(C)c(-c3ccccc3)cc2OC)n1 [Compound R925808]	> 10
c1ccc(-c2cc(Nc3ccc4c(c3)OCCO4)nc(Nc3ccc4c(c3)OCCO4)n2)cc1 [Compound R925811]	> 10
Oc1cccc(Nc2cc(-c3ccccc3)nc(Nc3cccc(O)c3)n2)c1 [Compound R925812]	> 10
CCOC(=O)C(Nc1ncc(C#N)c(NC(C(=O)OCC)C(C)C)n1)C(C)C (stereo not shown) [Compound R925814]	14.2
COC(=O)C(CC(C)C)Nc1ncc(C#N)c(NC(CC(C)C)C(=O)OC)n1 (stereo not shown) [Compound R925815]	> 10
Oc1ccc(-c2cnc(Nc3ccc4c(c3)OCCO4)nc2Nc2ccc3c(c2)OCCO3)cc1 [Compound R925816]	4.66
C=CCNc1ncc(Br)c(Nc2cccc(O)c2)n1 [Compound R925822]	> 10
C=CCNc1ncc(F)c(Nc2ccc3c(c2)OCCO3)n1 [Compound R925823]	9.33
CCOC(=O)c1nc(Nc2cccc(O)c2)nc(Nc2cccc(O)c2)c1[N+](=O)[O-] [Compound R925849]	8.02
CCOC(=O)c1nc(Nc2ccc3c(c2)OCCO3)nc(Nc2ccc3c(c2)OCCO3)c1[N+](=O)[O-] [Compound R925852]	> 10
